Results taken from patent publication US9162979B2, “1,5-Diary1-2-alkylpyrrole-3-substituted nitro esters, selective COX-2 inhibitors and nitric oxide donors” (ROTTAPHARM BIOTECH S.R.L., priority 2010, dated 2015).

Experiments:
[1] = target: COX-2 (Mus musculus (Mouse), UniProt Q05769); test: Evaluation of COX-2 activity: PGE2 production in LPS-stimulated J774 cells; assay type: cell-based, murine; settings: J774 cells stimulated 24 hours with LPS 10 μg/mL; PGE2 by radio-immunological assay; read-out: Cyclooxygenase inhibition COX-2 IC50
Description: The murine monocyte/macrophage cell line J774 is grown in Dulbecco's modified Eagle's medium (DMEM), enriched with glutamine (2 mM), HEPES (25 mM), penicillin (100 u/mL), streptomycin (100 μg/mL), 10% of fetal bovine serum (FBS) and 1.2% of sodium pyruvate. […] Just before the experiments, the culture medium is replaced with fresh medium without FBS to avoid interference during the radio-immunological phase and the cells are stimulated as described below.
The supernatants are collected for evaluating, by means of radio-immunological assays, the amount of PGE2 produced.
In each group of experiments, wells were used in triplicate for the different treatment conditions. […] The data were evaluated using the sigmoidal dose-response equation (variable slope) (GraphPad software). IC50 and the 95% precision intervals were calculated with the program GraphPad Instat (GraphPad software).

[2] = test system: isolated rings of thoracic aorta; test: Evaluation of release of NO: vasorelaxing activity on endothelium-denuded aortic rings contracted with KCl; parameters: species or system rat; settings: for IC50 / Emax: Rattus norvegicus; for IC50: read-out: NO release properties pIC50 (vasorelaxing potency) (converted); for Emax: relative to contractile tone induced by 20 mM KCl, 1 nM-10 μM, read-out: NO release properties Emax (maximum vasorelaxing effect); for vasorelaxing effect in the presence of ODQ: ODQ 1 μM, guanylate cyclase inhibitor
Description: The activity of the compounds was evaluated on isolated rings of thoracic aorta of normotensive male Wistar rats (250-350 g). After light anaesthesia with ether, the rats were sacrificed by cervical dislocation and exsanguination. The aortas were immediately excised, extraneous tissues were removed and the endothelial layer was removed by gently rubbing the surface with a hypodermic needle. Rings of aorta with a width of 5 mm were suspended, with a preload of 2 g, in 20-ml organ baths, containing a solution of “Tyrode” (composition of the saline solution in mM: NaCl 136.8; KCl 2.95; CaCl2 1.80; MgSO4 1.05; NaH2PO4 0.41; NaHCO3 11.9; glucose 5.5), thermostatically controlled at 37° C. and kept in an atmosphere of O2 (95%) and CO2 (5%). […] were recorded by means of an isometric transducer (FTO3 Erba), connected to a microdynamometer (Buxco Electronics).
60 minutes after preparation, removal of the endothelium was confirmed by acetylcholine (ACH) (10 μM) treatment of the vascular rings pre-contracted with KCl (20 mM). Relaxation of less than 10% of the contraction induced by KCl was considered as representative of acceptable removal of the endothelial layer, whereas organs displaying relaxation ≧10% were discarded. 40 minutes after confirmation of complete removal of the endothelium, the aortas were contracted by treatment with a single dose of KCl (20 mM) and after the contraction reached a stable plateau, increasing cumulative concentrations (with progressive increments of 3 times) of the test compounds (1 nM-10 μM) were added. It was found from preliminary experiments that the contraction induced by KCl (20 mM) remained stable in a tonic state for at least 40 minutes. The same experiments were performed in the presence of a well-known inhibitor of guanylate cyclase: ODQ 1 μM, which was incubated in aorta preparations after confirmation of removal of the endothelium.
Analysis of the results. The vasorelaxing activity was evaluated as a percentage (%) relative to the contractile tone induced by 20 mM KCl. The pharmacodynamic efficacy parameter (Emax) corresponds to the maximum vasorelaxing effect induced by the molecule tested, expressed as percentage relative to the contractile tone induced by 20 mM KCl. When the limit concentration of 10 μM (the highest concentration administered) of the test compounds has not reached the maximum effect, the efficacy parameter (Emax) corresponds to the vasorelaxing effect induced by the limit concentration (expressed as percentage relative to the contractile tone induced by 20 mM KCl). The pharmacodynamic parameter of potency of the compounds was expressed as pIC50 calculated as the negative logarithm of the molar concentration of test compound that reduces the contractile tone induced by 20 mM KCl by half. […] The parameters of efficacy and potency were expressed as mean±standard error, for 5-10 experiments. The experimental data were analysed by the program GraphPad Prism 3.0.

[3] = test system: mouse abdominal contraction (writhing) induced by acetic acid; test: Abdominal constriction test induced by acetic acid; assay type: in vivo
Description: (§1) Male Swiss albino mice (23-25 g) and Wistar rats (150-200 g) were used.
The antinociceptive activity was determined by the mouse abdominal contraction test using acetic acid (0.6%), which induces writhing, according to Koster's method (Fed. Proc., 1959, 18, 412-418). The number of stretching movements was counted for 10 minutes, starting 5 minutes after injection of acetic acid. The results relating to analgesic activity in the abdominal constriction test with representative compounds of the invention are shown in Table 10.
The test was carried out using 10 animals in the treated group and 20 in the control group (CMC); all the compounds were administered per os with the exception of the compound of Example 8, which was administered i.p.

[4] = test system: rat paw oedema induced by carrageenan; test: Volume of oedema test (carrageenan); assay type: in vivo; settings: 10 mg/kg per os
Description: The rat paw volumes were measured using a pletismometer. Four hours after injecting carrageenan 1.0% (0.1 ml injection), the volume of the right hind-paw was measured and compared with that of controls treated with a saline/carrageenan solution. The rats were administered the test compounds 3.5 hours after the carrageenan. The results are given as paw volume expressed in ml. The results relating to the analgesic and anti-oedemic activity in the carrageenan test for some representative compounds of the invention are shown in Table 11.
(§2) The test was performed using 6 animals per group, all the compounds were administered per os, 30 min before the test. The carrageenan is administered 2 h before the test.

[5] = test system: carrageenan-induced inflammatory state in the rat; test: Carrageenan test: nociceptive threshold (weight supported); assay type: in vivo; settings: 10 mg/kg per os
Description: as §1
The nociceptive threshold in the rat was determined with an analgesiometer, as described by Leighton et al. (Br. J. Pharmacol., 1988, 93, 553-560), the pressure was measured before the treatment and after 30 and 60 min. To reproduce the inflammatory state in the rat, carrageenan was administered i.p. (0.1 ml, 1%) 4 h before the test.
as §2

[6] = test system: rat liver homogenate; test: Evaluation of release of nitrites in hepatic homogenate; settings: nitrite after 4 hours, 1 mM, 37° C., as percentage of SNP
Description: By evaluating the time-dependent increase in nitrite concentrations in the liver homogenate, it was possible to extrapolate two descriptive parameters:
Time (in minutes) required for an amount of nitrite to be released by the test compound equal to half its maximum release.

[7] = concentration reducing contractile tone induced by 20 mM KCl by half

Sequence of COX-2 (Q05769 18-604): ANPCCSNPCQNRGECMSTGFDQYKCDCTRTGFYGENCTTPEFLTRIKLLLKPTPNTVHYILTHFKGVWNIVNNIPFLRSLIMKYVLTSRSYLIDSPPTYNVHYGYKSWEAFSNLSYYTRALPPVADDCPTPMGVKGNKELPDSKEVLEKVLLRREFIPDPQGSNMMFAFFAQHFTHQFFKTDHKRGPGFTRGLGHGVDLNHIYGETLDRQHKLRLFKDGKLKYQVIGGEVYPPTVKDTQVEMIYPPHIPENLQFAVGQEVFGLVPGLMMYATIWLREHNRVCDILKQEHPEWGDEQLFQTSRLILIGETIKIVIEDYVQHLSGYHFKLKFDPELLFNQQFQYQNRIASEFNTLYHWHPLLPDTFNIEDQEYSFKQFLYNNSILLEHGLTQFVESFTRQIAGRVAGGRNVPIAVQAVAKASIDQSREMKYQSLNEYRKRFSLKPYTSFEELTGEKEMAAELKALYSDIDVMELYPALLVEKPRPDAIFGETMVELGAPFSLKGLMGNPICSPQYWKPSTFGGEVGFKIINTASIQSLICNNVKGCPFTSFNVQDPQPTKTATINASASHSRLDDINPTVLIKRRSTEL

| Compound | IC50 [1] [nM] | IC50 [2, 7] [nM] | Emax [2] [%] | N writhes ([3]; 40 mg/kg per os) | N writhes ([3]; 20 mg/kg per os) | melting point [°C] | other results |
| --- | --- | --- | --- | --- | --- | --- | --- |
| Cc1c(C(N)C(=O)OCCO[N+](=O)[O-])cc(-c2ccc(S(C)(=O)=O)cc2)n1-c1ccc(F)cc1 (racemic) [Example 16, (R,S)-2-(Nitrooxy)ethyl-[2-amino-2-[1-(4-fluorophenyl)-2-methyl-5-(4-methylsulphonylphenyl)-1H-pyrrol-3-yl]]-acetate] | 740 | 1120 | 80 ± 7 | 24.9 ± 3.0 | – | – | – |
| Cc1c(C(N)C(=O)OCCCO[N+](=O)[O-])cc(-c2ccc(S(C)(=O)=O)cc2)n1-c1ccc(F)cc1 (racemic) [Example 18, (R,S)-3-(Nitrooxy)propyl-[2-amino-2-[1-(4-fluorophenyl)-2-methyl-5-(4-methylsulphonylphenyl)-1H-pyrrol-3-yl]]-acetate] | 820 | 2190 | 84 ± 2 | 13.5 ± 2.8 | 18.1 ± 3.0 | – | vasorelaxing effect in the presence of ODQ [2]: not fully antagonized by ODQ; N writhes ([3]; 3 mg/kg per os): 26.9 ± 2.6; N writhes ([3]; 10 mg/kg per os): 21.3 ± 2.5 |
| Cc1c(C(N)C(=O)OCCCCO[N+](=O)[O-])cc(-c2ccc(S(C)(=O)=O)cc2)n1-c1ccc(F)cc1 (racemic) [Example 20, (R,S)-4-(Nitrooxy)butyl-[2-amino-2-[1-(4-fluorophenyl)-2-methyl-5-(4-methylsulphonylphenyl)-1H-pyrrol-3-yl]]-acetate] | 1000 | 1550 | 93 ± 1 | 19.8 ± 2.4 | – | 108 | vasorelaxing effect in the presence of ODQ [2]: not fully antagonized by ODQ |
| Cc1c(CC(=O)NC(CCO[N+](=O)[O-])C(=O)O)cc(-c2ccc(S(C)(=O)=O)cc2)n1-c1ccc(F)cc1 (racemic) [Example 32, (R,S)-4-(Nitroxy)-2-[[1-(4-fluorophenyl)-2-methyl-5-(4-methylsulphonylphenyl)-1H-pyrrol-3-yl]acetamido]butanoic Acid] | 1600 | – | 42 ± 9 | – | 14.6 ± 2.7 | – | N writhes ([3]; 10 mg/kg per os): 22.8 ± 3.0 |
| Cc1ccc(-c2cc(C(F)(F)F)nn2-c2ccc(S(N)(=O)=O)cc2)cc1 [Celecoxib, reference compound] | – | – | – | – | – | – | Oedema Volume [4]: 1.91 ± 0.04 mL; Weight supported (g) After treatment 30 min [5]: 52.9 ± 3.1 g; Weight supported (g) After treatment 60 min [5]: 48.3 ± 3.4 g; Weight supported (g) Before treatment ([5]; baseline before treatment): 30.9 ± 2.6 g |
| COc1ccc(-n2c(-c3ccc(S(C)(=O)=O)cc3)cc(CC(=O)OCCO[N+](=O)[O-])c2C)cc1 [Example 4, 2-(Nitrooxy)ethyl-[1-(4-methoxy-phenyl)-2-methyl-5-(4-methylsulphonylphenyl)-1H-pyrrol-3-yl]-acetate] | 170 | 178 | 77 ± 2 | 17.7 ± 2.3 | – | 122 | – |
| Cc1c(CC(=O)OCCCO[N+](=O)[O-])cc(-c2ccc(S(C)(=O)=O)cc2)n1-c1cccc(F)c1 [Example 8, 3-(Nitroxy)propyl-[1-(3-fluorophenyl)-2-methyl-5-(4-methylsulphonylphenyl)-1H-pyrrol-3-yl]-acetate] | 7 | 162 | 82 ± 1 | – | – | – | N writhes ([3]; 20 mg/kg i.p.): 16.9 ± 2.4 |
| COc1ccc(-n2c(-c3ccc(S(C)(=O)=O)cc3)cc(CC(=O)OCCCO[N+](=O)[O-])c2C)cc1 [Example 9, 3-(Nitroxy)propyl-[1-(4-methoxyphenyl)-2-methyl-5-(4-methylsulphonylphenyl)-1H-pyrrol-3-yl]-acetate] | 2 | – | 41 ± 11 | – | 18.4 ± 3.1 | 115 | – |
| Cc1c(CC(=O)OCCCCO[N+](=O)[O-])cc(-c2ccc(S(C)(=O)=O)cc2)n1-c1cccc(F)c1 [Example 12, 4-(Nitrooxy)butyl-2-[1-(3-fluorophenyl)-2-methyl-5-(4-methylsulphonylphenyl)-1H-pyrrol-3-yl]acetate] | 69 | 3980 | 57 ± 14 | 25.1 ± 2.3 | – | 114 | – |
| COc1ccc(-n2c(-c3ccc(S(C)(=O)=O)cc3)cc(CC(=O)OCCCCO)c2C)cc1 [Example 13-II, 4-(Hydroxy)butyl-2-[1-(4-methoxyphenyl)-2-methyl-5-(4-methylsulphonylphenyl)-1H-pyrrol-3-yl]acetate] | 1100 | – | – | 14.7 ± 2.5 | – | – | – |
| Cc1c(CC(=O)NCCO[N+](=O)[O-])cc(-c2ccc(S(C)(=O)=O)cc2)n1-c1ccc(F)cc1 [Example 23, N-[(2-Nitroxy)ethyl]-2-[1-(4-fluorophenyl)-2-methyl-5-(4-methylsulphonylphenyl)-1H-pyrrol-3-yl]acetamide] | 240 | 4900 | 68 ± 6 | – | – | 135 | NO release properties pIC50 (vasorelaxing potency) [2, 7]: 5.31 ± 0.05 |
| Cc1c(CCOCCO)cc(-c2ccc(S(C)(=O)=O)cc2)n1-c1cccc(F)c1 [Example 38-II] | 46 | – | – | 17.3 ± 3.5 | 26.8 ± 3.2 | – | – |
| Cc1c(CCOCCO)cc(-c2ccc(S(C)(=O)=O)cc2)n1-c1ccc(F)c(F)c1 [Example 39-II] | 420 | – | – | – | 24.8 ± 3.0 | 138 to 140 | – |
| O=C(NCCO[N+](=O)[O-])c1cccnc1 [Nicorandil, reference compound] | – | – | – | – | – | – | Maximum release (%) [6]: 18 ± 2% |
